Each block holds one molecule with its values, some of them ahead of it.
Legend:
[1] = tested on: retinal ganglion cell axons; experiment: Protection of retinal ganglion cell axons from degeneration following optic nerve transection (Table V); type: in vivo; conditions: ± SEM
From the text: Efficacy of representative compounds from different immunophilin ligand series in protecting retinal ganglion cell axons from degeneration following optic nerve transection is set forth in Table V.

[2] = Clearance (Table V comments); type: in vitro ADME
FKBP12 = FKBP12 (Homo sapiens, UniProt P62942); experiment: Ki test: inhibition of peptidyl-prolyl isomerase (rotamase) activity of FKBP; type: biochemical; conditions: apparent Ki; read-out: Ki rotomase
[3] = tested on: retinal ganglion cells and optic nerve axons; experiment: In vivo retinal ganglion cell and optic nerve axon tests after optic nerve transection (Table 1); design: species or system Sprague Dawley rats; conditions: 90 days after optic nerve transection
From the text: All eyes and optic nerve stumps were removed.

[4] = tested on: retinal ganglion cells, optic nerve axons and myelin; experiment: Retinal ischemia by raised intraocular pressure; type: in vivo, rats; conditions: 28 days after 1 hour retinal ischemia
From the text: Retinal ganglion cells were retrogradely labeled in adult rats by bilateral injection of fluorogold in their lateral geniculate nuclei. Labeled ganglion cells in the normal rat retina appear as white profiles against the dark background (FIG. 1A). Complete retinal ischemia was produced by infusing normal saline solution into the retinal vitreous cavity of each eye until the intraocular pressure exceeded arterial blood pressure. 28 days after the ischemic episode extensive degeneration of retinal ganglion cell was evidenced by massive reduction in the density of fluorogold labeled cells (FIG. 1B).
Optic nerves from vehicle treated cases examined 28 days after a 1 hour retinal ischemia episode are characterized by a decreased density of optic nerve axons and the appearance of numerous degenerating myelin figures (bright white filled circles).

retinal ganglion cells = experiment: Example 18: optic nerve transection, ganglion cell survival and axonal dying back; type: in vivo, Sprague Dawley rats; conditions: 10 mg/kg/day s.c. for 28 days; 90 days after transection
From the text: Transection of the mammalian optic nerve results in a brief period of abortive regeneration, but the majority of axotomized neurons die and the axons from many persisting ganglion cells die back beyond the optic nerve head.

[5] = Morris watermaze spatial learning and memory in aged rodents; type: in vivo, C57BL/6N-Nia mice; conditions: aged impaired mice, 10 mg/kg daily, after 3 weeks of dosing; vs young mice
From the text: The Morris watermaze is widely used for assessing spatial memory formation and retention in experimental animals. The test depends on the animal's ability to utilize spatial visual information in order to locate a submerged escape platform in a water tank. It is important that the tank itself be as devoid of specific visual features as possible—thus, it is always circular in shape, the sides are kept smooth and in uniform dull colors, and the water is rendered opaque with nontoxic watercolor pigment or powdered milk. This is to ensure that the animal navigates only by the use of more distant visual cues, or by the use of intra-maze cues specifically provided by the experimenter.
The animals' path, speed, and swim time are tracked with a ceiling camera for later computerized analysis. Over the course of several successive trials, spatial learning can therefore be defined as a drop of distance swum, or time elapsed, from placement in the tank until escape onto the invisible platform. […]
Retention testing began after 3 weeks of dosing using the same methods as the acquisition phase. Swim Distances (cm) were analyzed in a 7×5 ANOVA including Groups and Blocks (1-5) as factors in the analysis, treating Blocks as a repeated measure.

retina = experiment: Streptozotocin induced diabetes, retinal neovascularization and neuron loss; type: in vivo; conditions: 28 day treatment beginning 8 weeks after onset of streptozotocin diabetes

Chain of FKBP12 (P62942 whole entry, species assumed): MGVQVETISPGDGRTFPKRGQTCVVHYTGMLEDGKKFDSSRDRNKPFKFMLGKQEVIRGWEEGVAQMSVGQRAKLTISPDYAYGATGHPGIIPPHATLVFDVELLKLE

SMILES: O=C(SCCCc1ccccc1)C1CCCN1C(=O)NC12CC3CC(CC(C3)C1)C2 (stereo not shown) [B]
- RT-RGC azon density 11 days after ON Transection ( axon rescued) [1]: 100.0% ±5.2% SEM

SMILES: O=C(SCCCc1ccccc1)[C@@H]1CCCN1S(=O)(=O)Cc1ccccc1 [C]
- RT-RGC azon density 11 days after ON Transection ( axon rescued) [1]: 60.4% ±3.1% SEM

SMILES: O=C(OCCCCc1ccccc1)[C@@H]1CCCCN1S(=O)(=O)Cc1ccccc1 [D]
- RT-RGC azon density 11 days after ON Transection ( axon rescued) [1]: 58.4% ±6.4% SEM

- Clearance [2]: 41.8 µL/min
- Ki (FKBP12): 20 nM
SMILES: CCC(C)(C)C(=O)C(=O)N1CCCC[C@H]1C(=O)SC(CCc1ccccc1)CCc1ccccc1 [E]
- RT-RGC azon density 11 days after ON Transection ( axon rescued) [1]: 56.6% ±9.4% SEM

SMILES: CCC(C)(C)C(=O)C(=O)N1CCS[C@H]1C(=O)OCCCc1cccnc1 [F]
- RT-RGC azon density 11 days after ON Transection ( axon rescued) [1]: 55.1% ±5.9% SEM

SMILES: CCC(C)(C)C(=O)C(=O)N1CCC[C@H]1C(=O)OCCCc1cccnc1 [GPI 1046]
- RGC Counts (mean density + SEM of Fluoro-gold labeled retinal ganglion cells in 400 μm × 400 μm gridfields) ([3]; 10 mg/kg/day sc for 28 days): 67.9 ± 5.8
- increased ON axon density (adjusted for optic nerve diameter) ([3]; 14 days treatment): 1.5X
- increased ON axon density (adjusted for optic nerve diameter) ([3]; 28 days treatment): 5.0X
- protection of optic nerve axons from degeneration [4]: protected the majority of optic nerve axons from degeneration
- ganglion cell population spared (retinal ganglion cells): 25%
- preservation of axons of protected neurons in proximal stump (retinal ganglion cells): preserved the axons of virtually all protected neurons
- difference between young and aged impaired GPI-1046 treated groups, retention phase [5]: no longer any statistically significant difference
- Ki (FKBP12): 7.5 nM
- RT-RGC azon density 11 days after ON Transection ( axon rescued) [1]: 60.5% ±3.9 SEM
- loss of neurons in INL and GCL (retina): appeared to decrease the loss of neurons
- neovascularization in PR, ONL, OPL and INL of retina (retina): reduced neovascularization
- neuronal loss in the ONL (retina): did not appear to protect

SMILES: CCC(C)(C)C(=O)C(=O)N1CCCC[C@H]1C(=O)O [G]
- RT-RGC azon density 11 days after ON Transection ( axon rescued) [1]: 34.0% ±4.8% SEM

SMILES: CCC(C)(C)C(=O)C(=O)N1CCCC[C@H]1C(N)=O [H]
- RT-RGC azon density 11 days after ON Transection ( axon rescued) [1]: 30.3% ±8.0% SEM

SMILES: CCC(C)(C)C(=O)C(=O)N1CCC[C@H]1C(=O)CCCCc1cccnc1 [J]
- RT-RGC azon density 11 days after ON Transection ( axon rescued) [1]: 15.8% ±4.8% SEM

SMILES: CCC(C)(C)C(=O)C(=O)N1CCCC[C@H]1C(=O)SCCC(c1ccccc1)c1ccccc1 [K]
- RT-RGC azon density 11 days after ON Transection ( axon rescued) [1]: 13.0% ±4.2% SEM

SMILES: CCC(C)(C)C(=O)C(=O)N1CCC[C@H]1C(=O)O [L]
- RT-RGC azon density 11 days after ON Transection ( axon rescued) [1]: 7.8% ±3.0% SEM

SMILES: CCC(C)(C)C(=O)C(=O)N1CCC[C@H]1C(=O)SCCC(c1ccccc1)c1ccccc1 [M]
- RT-RGC azon density 11 days after ON Transection ( axon rescued) [1]: −6.3% +3.9% SEM
